# In US20020188202A1, “Method of diagnosis and treatment and related compositions and apparatus” (priority 1996, published 2002):
# Entries after “also recorded” stand apart in the source; their conditions may differ.
# Key:
# [1] = test system: migraine patients with vasospasm on TCD; experiment: Migraine patients treated with Nitroglycerine patches, TCD and neurological exam; format: in vivo, human patients
# Procedure: All patients are evaluated with a complete history, physical exam, and neurological exam by a Board Certified Neurologist. All patients have blood work consisting of a CBC with differential count and platelets as well as an SMA-30 obtained. All whiplash related patients underwent a CT or MRI of the brain, EEG and qEEG, B-mode and spectral analysis ultrasound of the subclavian, carotid, and vertebral circulation, and Transcranial Doppler (TCD) examination of the intracranial circulation. In some situations, repetitive Transcranial Doppler examinations are performed on the same patient in the same day. Initially, these tests are performed by maintaining the probe on the patient's head through the course of several hours, but later the technique involves using the same probe, patient position, technician, depth, and cranial window with serial but interrupted exams across the course of the day. In all cases, the highest spectral frequencies are recorded, as well as repeat exams at the same depth and window as the baseline pre-medication windows were obtained. Immediately prior to initial TCD exams, a neurological exam is carried out. At the time of initiation of treatment for the cerebral vasospasm, at which time vasoactive medications are administered after the baseline TCD and neuro exam are obtained, repeat TCD exams are carried out and when medication effects on the intracranial circulation were identified, repeat neurological exams are obtained. In 5 patients, P300 are obtained prior to initiation of treatment and, again, several months later. The same methodology is used in those patients referred for evaluation of possible MS-like syndrome as recognized in the recent global settlement. With these patients, triple evoked potentials, EEG and qEEG, and a vascular evaluation as outlined above is carried out in all patients, and in 11 who decided to attempt treatment with vasoactive drugs, the methodology outlined above for initiation of as in the MVA-related post-concussion syndrome are used. 10 of the 19 MS-like syndrome patients additionally had brain MRI tests performed. […]
# [2] = test system: adult ADD patients with vasospasm; experiment: Attention Deficit Disorder siblings treated with vasodilators, serial TCD and neuropsychological testing; format: in vivo, human patients; details: male; for right MCA mean flow velocity: baseline 0.86; for left MCA mean flow velocity: baseline 0.92
# Procedure: Both were administered a battery of tests which measured neuropsychological functioning and personality variables.
# On referral for neurological evaluation, mild physical and significant objective testing abnormalities were found. […] Both, further, had difficulty performing a Tandem Gait with complete ease. The physical exam was otherwise normal. An EEG and computerized EEG were performed and were abnormal.
# Both individuals were treated with vasodilating medications for 10 months and received psychotherapy and vocational counseling. Relaxation and hypnotherapy were also used to develop visualization skills for both recall of successful social and work experiences and to visualize successful outcomes of activities to do.
# In serial testing, the […] underwent TCD's on three separate occasions on the same day. […] By the end of the day, […] identified that […] could read, understand and retain news articles and magazine articles. […] could also follow a television show throughout. […] could do neither at the beginning of the day.
# On the basis of the objective disorders of flow and the patient's reported and observed improvement during the trial episode of administering medications to decrease the observed vasospasm, we started the sibling on vasodilators. […] This regimen was made up of a low dose Calcium Channel Blocker, and an ACE inhibitor along with low dose Nitroglycerine and a Clonidine patch.
# [3] = test system: patient with migraine, schizophrenic reaction and vasospasm; experiment: Case study: psychosis caused by cerebral ischemia, EEG and TCD; format: in vivo, human patient; details: single patient
# [4] = test system: patients with cerebral vasospasm; experiment: Vasoactive medications tried on Applicant's patients with vasospasm, monitored by Transcranial Doppler (TCD), exam and symptoms
# Text: As headache was a major complaint of many of Applicant's patients, we tried these medications out including Imitrex (Sumatriptan), IM Toradol (Ketoralac) and other medications under direct monitoring. […] Rather, it was expected that one or another set of medications might help point the way into using specific classes of medications or approaches. Accordingly, each of these patients. equivalent of a large number of patients, were monitored continuously across the day.
# With respect to the different monitoring tools, some were more helpful than others. […] The Brain Stem Auditory Evoked Response and other evoked potential tests were very insensitive tools for monitoring, because of the length of time required to perform the test after short-acting medications were given in IM or sublingual or nasal spray administration route. […] These symptoms included not only headache, but also sensations of confusion, balance disorder, abnormal Romberg or Tandem Gait of other neurological abnormalities.
# As headache was a major complaint of many of these patients, Applicant tried these medications out including Imitrex (Sumatriptan), IM Toradol (Ketoralac) and other medications under direct monitoring. […] Rather, it was expected that one or another set of medications might help point the way into using specific classes of medications or approaches. Accordingly, each of these patients, equivalent of a large number of patients, is monitored continuously across the day.
# With respect to the different monitoring tools, some were more helpful than others. […] The Brain Stem Auditory Evoked Response and other evoked potential tests were very insensitive tools for monitoring, because of the length of time required to perform the test after short-acting medications were given in IM or sublingual or nasal spray administration route.
# [5] = second TCD of the day after repetitive applications
# [6] = third TCD of the day after repetitive applications
# [7] = human, in vivo, listed as Nitroglycerine
compound,measurement,setting,value
O=[N+]([O-])OCC(CO[N+](=O)[O-])O[N+](=O)[O-] [Nitroglycerin],follow-up TCD at the end of application of the patch,[1]; 3 patients,confirmed reduction of the vasospasm
same,"lower extremity hyper-reflexia, Rhomberg and tandem gait abnormalities","[1]; human, in vivo",all resolved
same,headache,"[1]; patches applied for 10 minutes to 1 hour, 5 patients",headache resolved
same,concentration (self-assessment),[2]; same day serial testing,significant improvement in concentration
same,neurological exam (balance testing),[2]; same day serial testing,exam progressively normalized
same,right MCA mean flow velocity,[2]; [5],0.79 meters/second
same,left MCA mean flow velocity,[2]; [5],0.84 meters/second
same,right MCA mean flow velocity,[2]; [6],0.72 meters/second
same,left MCA mean flow velocity,[2]; [6],0.79 meters/second
same,headaches / migraines,[3],"complete resolution of their daily headaches; also recorded: headaches completely resolved as did memory disturbances, concentration problems and emotional lability; also recorded: responded promptly"
same,effect on vessels seen on TCD / ultrasound (vasoconstriction or dilatation),"[4]; human, in vivo",resulted in vascular dilatation
same,headache,"[4]; human, in vivo",improvement in the patient's headache
same,neurological exam and other neurological abnormalities,"[4]; human, in vivo",improvement of any other neurological abnormalities
same,headache,[4]; [7],alleviated or treated the headache
same,neurological exam and other neurological abnormalities,[4]; [7],clinical and neurological exam improvement
same,transient supersensitivity (transient worsening of the vasospasm) on early administration,[4]; witnessed on TCD or clinically,can give transient severe vasoconstrictive episodes
